Results from BigSolDB 2.1.

C(=Cc1ccc(-c2nc3ccccc3o2)cc1)c1ccc(-c2nc3ccccc3o2)cc1
solubility (mole fraction) (in DMF, 323.15 K): 3.02e-06 | solubility (mole fraction) (in DMF, 338.15 K): 7.12e-06 | solubility (mole fraction) (in DMF, 353.15 K): 1.04e-05 | solubility (mole fraction) (in DMF, 368.15 K): 1.57e-05 | solubility (mole fraction) (in DMF, 383.15 K): 2.63e-05 | solubility (mole fraction) (in NMP, 323.15 K): 3.18e-06 | solubility (mole fraction) (in NMP, 338.15 K): 7.96e-06 | solubility (mole fraction) (in NMP, 353.15 K): 1.37e-05 | solubility (mole fraction) (in NMP, 368.15 K): 2.44e-05 | solubility (mole fraction) (in NMP, 383.15 K): 3.99e-05 | solubility (mole fraction) (in chlorobenzene, 323.15 K): 8.89e-06 | solubility (mole fraction) (in chlorobenzene, 338.15 K): 2.1e-05 | solubility (mole fraction) (in chlorobenzene, 353.15 K): 3.65e-05 | solubility (mole fraction) (in chlorobenzene, 368.15 K): 4.9e-05 | solubility (mole fraction) (in chlorobenzene, 383.15 K): 5.59e-05 | solubility (mole fraction) (in water, 323.15 K): 1.3e-07 | solubility (mole fraction) (in water, 338.15 K): 3.39e-07 | solubility (mole fraction) (in water, 353.15 K): 5.56e-07 | solubility (mole fraction) (in water, 368.15 K): 6.6e-07
